# PubChem BioAssay AID743142 (Broad Institute, 2013)
# Inconclusive results are not listed. Calls of active or inactive are those of the source.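 How the source made its calls: active means sample lowering the cell viability signal whose fitted half-effect dose is at or below its top tested dose; inconclusive means flat fit with 30 to 70 percent loss, or poor fit; inactive means the rest, including effects in the wrong direction.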
# System: HEK293T viability, ATP luminescence (CellTiter-Glo), 72 h
# Assay: HEK293T viability loss – cell-based, ATP luminescence, dry powder, Set6, cytotoxicity control, dose response (AID 743142)
# Details: not given
row,Structure (SMILES),AC50 [µM]
1,O=C(CCNC(=O)c1ccc(Cl)cc1)NC1CCCc2ccccc21 (stereo unspecified),7.73

# System: not listed separately
# Assay: as above
# Details: HEK293T viability, ATP luminescence (CellTiter-Glo), 72 h; at 12 µM (top of the series)
row,Structure (SMILES),"activity change, negative = cytotoxicity"
1,CC(NC(=O)CCNC(=O)c1ccc(Cl)cc1)c1ccc(F)cc1 (stereo unspecified),41.6% (inactive)

# Same assay, conditions: HEK293T viability, ATP luminescence (CellTiter-Glo), 72 h; at 26 µM (top of the series)
row,Structure (SMILES),"activity change, negative = cytotoxicity"
1,O=C(CCNC(=O)c1ccccc1Cl)NC1CCCc2ccccc21 (stereo unspecified),10.9% (inactive)
2,O=C(CCCNC(=O)c1ccc(Cl)cc1)N[C@@H]1CCCc2ccccc21,2.4% (inactive)
3,CC(C)(C)OC(=O)NCCC(=O)N[C@@H]1CCCc2ccccc21,-2.95% (inactive)
4,O=C(CNC(=O)c1ccc(Cl)c(Cl)c1)N[C@@H]1CCCc2ccccc21,-24.4% (inactive)
5,O=C(CCNC(=O)c1ccc(Cl)cc1)NC1CCCCC1,13% (inactive)
6,COc1ccccc1C(=O)NCCC(=O)NC1CCCc2ccccc21 (stereo unspecified),-2.09% (inactive)
7,CC(C)(C)OC(=O)NCCC(=O)N[C@H]1CCCc2ccccc21,-17.3% (inactive)
8,O=C(CNC(=O)c1ccc(Cl)cc1)N[C@@H]1CCCc2ccccc21,-4.76% (inactive)
9,NCCC(=O)N[C@@H]1CCCc2ccccc21,27.3% (inactive)
10,CC(=O)NCCC(=O)N[C@@H]1CCCc2ccccc21,10.6% (inactive)
11,C[C@@H](NC(=O)CCNC(=O)c1ccc(Cl)cc1)c1ccccc1,19.9% (inactive)
12,O=C(CCCNC(=O)c1ccc(C(F)(F)F)cc1)N[C@@H]1CCCc2ccccc21,49.1% (inactive)
13,CN(C(=O)CCNC(=O)c1ccc(F)cc1F)C1CCCc2ccccc21 (stereo unspecified),7.5% (inactive)
14,O=C(CCNC(=O)c1ccccc1)N[C@@H]1CCCc2ccccc21,-39.6% (inactive)
15,COc1ccccc1C(C)NC(=O)CCNC(=O)c1ccc(Cl)cc1 (stereo unspecified),-9.14% (inactive)
16,O=C(CNC(=O)c1ccc(C(F)(F)F)cc1)N[C@@H]1CCCc2ccccc21,-8.54% (inactive)
17,CC(NC(=O)CCNC(=O)c1ccc(Cl)cc1)c1ccc2c(c1)OCO2 (stereo unspecified),21.1% (inactive)
18,O=C(NC1CCc2ccccc21)C1CCCN(C(=O)c2ccc(Cl)cc2)C1 (stereo unspecified),-34.8% (inactive)
19,O=C(CCNC(=O)c1ccc(Cl)cc1)N[C@H]1CCCc2ccccc21,-23.6% (inactive)
20,COc1cc(C(=O)NCCC(=O)NC2CCCc3ccccc32)cc(OC)c1OC (stereo unspecified),-40.5% (inactive)
21,O=C(CCCNC(=O)c1ccc(OC(F)(F)F)cc1)N[C@@H]1CCCc2ccccc21,48.5% (inactive)
22,CC(CC(=O)N(C)C1CCCc2ccccc21)NC(=O)c1ccccc1 (stereo unspecified),-30% (inactive)
23,Cc1cccc(C(=O)NCCC(=O)NC2CCCc3ccccc32)c1 (stereo unspecified),-15.8% (inactive)
24,CC(c1ccccc1)N(C)C(=O)CCNC(=O)c1ccc(Cl)cc1 (stereo unspecified),-5.44% (inactive)
25,O=C(CCCNC(=O)c1ccc(Cl)c(Cl)c1)N[C@@H]1CCCc2ccccc21,8.38% (inactive)
26,CC(CC(=O)NC1CCCc2ccccc21)NC(=O)c1ccccc1 (stereo unspecified),-38.5% (inactive)
27,O=C(CNC(=O)c1ccc(OC(F)(F)F)cc1)N[C@@H]1CCCc2ccccc21,1.28% (inactive)
28,O=C(NC1CCOc2ccccc21)C1CCCN(C(=O)c2ccc(Cl)cc2)C1 (stereo unspecified),-5.89% (inactive)
29,CC(NC(=O)C1CCCN(C(=O)c2ccc(Cl)cc2)C1)c1ccccc1 (stereo unspecified),64.4% (inactive)
